The source of these data is patent US20250170248A1, “SMARCA DEGRADERS AND USES THEREOF” (Kymera Therapeutics, Inc., priority 2021, published 2025).

Common to all, as to assay type: cell-based
The target in experiment [1] is T1, SMARCA2 (Homo sapiens, UniProt P51531). The experiment is described as follows: SMARCA2 Western blot degradation in MV4-11 cells. On the set-up: SMARCA2/SMARCA4 protein degradation selectivity in MV4-11 cells; endogenous in cells; host or cells: MV4-11. To be noted: for SMARCA2 MSD MV411 degradation 24 h: average Dmax % / DC50 / Selectivity in MV411: MV4-11 cells; for SMARCA2 MSD MV411 degradation 24 h: average Dmax % / DC50 / Dmax: 24 h; for DC50: read-out: SMARCA2 MSD MV411 degradation 24 h: Mean external-Abs DC50; for Selectivity in MV411: SMARCA2/4 selectivity; for Dmax: MV4-11, MV4-11 cells, read-out: SMARCA2 MSD MV411 degradation 24 h: average Dmax %.
T1 sequence (P51531 whole entry): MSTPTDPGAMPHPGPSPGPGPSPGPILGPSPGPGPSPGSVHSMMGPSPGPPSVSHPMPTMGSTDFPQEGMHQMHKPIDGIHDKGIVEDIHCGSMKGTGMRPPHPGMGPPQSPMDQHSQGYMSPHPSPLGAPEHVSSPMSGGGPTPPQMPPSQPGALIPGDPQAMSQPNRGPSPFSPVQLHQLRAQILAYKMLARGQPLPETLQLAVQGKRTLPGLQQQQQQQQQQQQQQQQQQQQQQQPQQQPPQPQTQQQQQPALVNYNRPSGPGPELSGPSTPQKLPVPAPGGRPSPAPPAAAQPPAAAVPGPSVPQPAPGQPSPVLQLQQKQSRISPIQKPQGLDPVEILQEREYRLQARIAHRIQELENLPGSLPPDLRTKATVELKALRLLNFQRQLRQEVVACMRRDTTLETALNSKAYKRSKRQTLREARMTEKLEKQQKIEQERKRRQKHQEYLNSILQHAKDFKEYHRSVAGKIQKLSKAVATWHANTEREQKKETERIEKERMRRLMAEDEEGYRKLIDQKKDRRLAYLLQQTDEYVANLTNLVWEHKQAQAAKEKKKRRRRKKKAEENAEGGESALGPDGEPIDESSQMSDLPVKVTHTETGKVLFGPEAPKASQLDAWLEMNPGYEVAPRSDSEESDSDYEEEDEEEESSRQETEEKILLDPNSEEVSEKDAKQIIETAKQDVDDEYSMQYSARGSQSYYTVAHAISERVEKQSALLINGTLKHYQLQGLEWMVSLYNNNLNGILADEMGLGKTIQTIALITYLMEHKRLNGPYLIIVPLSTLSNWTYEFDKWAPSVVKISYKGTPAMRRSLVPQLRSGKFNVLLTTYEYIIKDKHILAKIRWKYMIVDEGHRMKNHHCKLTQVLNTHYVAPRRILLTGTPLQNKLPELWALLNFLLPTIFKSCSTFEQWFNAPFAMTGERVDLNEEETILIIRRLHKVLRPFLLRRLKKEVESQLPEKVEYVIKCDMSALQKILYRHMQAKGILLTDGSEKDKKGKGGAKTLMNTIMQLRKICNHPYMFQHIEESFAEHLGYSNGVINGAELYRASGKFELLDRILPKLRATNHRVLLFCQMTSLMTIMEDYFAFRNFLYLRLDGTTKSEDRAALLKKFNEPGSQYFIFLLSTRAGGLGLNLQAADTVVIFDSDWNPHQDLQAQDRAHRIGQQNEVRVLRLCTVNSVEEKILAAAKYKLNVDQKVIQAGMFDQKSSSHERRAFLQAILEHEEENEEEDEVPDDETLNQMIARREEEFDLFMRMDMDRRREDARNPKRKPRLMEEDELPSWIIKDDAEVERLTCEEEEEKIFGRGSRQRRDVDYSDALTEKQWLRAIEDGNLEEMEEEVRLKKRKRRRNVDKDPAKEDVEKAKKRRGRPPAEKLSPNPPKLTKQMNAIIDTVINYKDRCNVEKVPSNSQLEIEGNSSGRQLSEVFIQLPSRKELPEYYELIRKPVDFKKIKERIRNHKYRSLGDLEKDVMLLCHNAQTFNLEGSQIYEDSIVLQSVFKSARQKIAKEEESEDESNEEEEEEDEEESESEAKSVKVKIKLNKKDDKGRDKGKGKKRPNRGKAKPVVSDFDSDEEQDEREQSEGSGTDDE

Experiment [2] deals with T2, SMARCA4 (Homo sapiens, UniProt P51532).
T2 construct: SMARCA2/SMARCA4 protein degradation selectivity in MV4-11 cells; endogenous in cells; host or cells: MV4-11
T2 sequence (P51532 whole entry): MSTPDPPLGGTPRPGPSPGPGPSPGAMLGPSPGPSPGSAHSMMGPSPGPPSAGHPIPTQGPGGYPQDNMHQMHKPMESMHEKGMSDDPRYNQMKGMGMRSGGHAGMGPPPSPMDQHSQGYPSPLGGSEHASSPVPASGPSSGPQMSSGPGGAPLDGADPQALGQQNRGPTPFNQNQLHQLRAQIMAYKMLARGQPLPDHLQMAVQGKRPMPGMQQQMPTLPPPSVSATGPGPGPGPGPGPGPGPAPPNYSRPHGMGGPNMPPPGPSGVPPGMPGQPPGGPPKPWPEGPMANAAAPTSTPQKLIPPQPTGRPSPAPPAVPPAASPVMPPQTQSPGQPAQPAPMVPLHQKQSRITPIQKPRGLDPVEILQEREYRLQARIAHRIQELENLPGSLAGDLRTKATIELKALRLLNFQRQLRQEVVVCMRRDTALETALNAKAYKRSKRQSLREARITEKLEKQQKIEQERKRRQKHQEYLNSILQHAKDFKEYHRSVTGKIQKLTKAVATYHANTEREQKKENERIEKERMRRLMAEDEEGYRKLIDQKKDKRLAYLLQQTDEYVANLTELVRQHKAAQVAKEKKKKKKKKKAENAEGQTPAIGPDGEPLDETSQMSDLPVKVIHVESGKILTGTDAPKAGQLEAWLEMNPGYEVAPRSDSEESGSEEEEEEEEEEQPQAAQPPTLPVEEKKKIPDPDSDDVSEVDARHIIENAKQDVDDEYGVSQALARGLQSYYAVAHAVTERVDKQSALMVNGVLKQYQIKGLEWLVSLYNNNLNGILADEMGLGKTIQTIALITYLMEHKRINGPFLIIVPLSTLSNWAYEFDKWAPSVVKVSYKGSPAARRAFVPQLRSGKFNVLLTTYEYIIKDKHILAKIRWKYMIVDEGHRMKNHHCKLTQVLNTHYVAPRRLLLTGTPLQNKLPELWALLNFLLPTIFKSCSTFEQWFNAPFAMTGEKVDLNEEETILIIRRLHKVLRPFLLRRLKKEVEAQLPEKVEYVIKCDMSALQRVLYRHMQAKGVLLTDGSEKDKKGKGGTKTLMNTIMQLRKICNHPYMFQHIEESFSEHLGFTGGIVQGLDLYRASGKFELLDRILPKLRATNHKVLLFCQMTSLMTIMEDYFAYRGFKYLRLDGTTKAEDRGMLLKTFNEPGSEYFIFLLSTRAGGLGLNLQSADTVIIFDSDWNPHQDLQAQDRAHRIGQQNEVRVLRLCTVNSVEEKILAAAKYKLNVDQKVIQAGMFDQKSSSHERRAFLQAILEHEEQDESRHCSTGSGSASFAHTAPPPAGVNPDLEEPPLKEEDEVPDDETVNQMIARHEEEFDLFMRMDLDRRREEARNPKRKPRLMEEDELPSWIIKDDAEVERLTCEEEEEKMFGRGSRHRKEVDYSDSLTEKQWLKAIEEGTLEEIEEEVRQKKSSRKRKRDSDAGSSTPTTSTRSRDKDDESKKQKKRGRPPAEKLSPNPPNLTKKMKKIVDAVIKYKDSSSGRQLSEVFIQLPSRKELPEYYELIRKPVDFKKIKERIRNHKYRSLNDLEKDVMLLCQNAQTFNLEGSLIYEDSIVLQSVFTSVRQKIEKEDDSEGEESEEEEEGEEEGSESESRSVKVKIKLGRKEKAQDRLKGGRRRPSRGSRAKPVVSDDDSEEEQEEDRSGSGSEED
Description: SMARCA4 Western blot degradation in MV4-11 cells. The following applies: for SMARCA4 MSD MV411 degradation 24 h: average Dmax % / DC50: MV4-11 cells; for DC50 / Dmax: 24 h; for DC50: read-out: SMARCA4 MSD MV411 degradation 24 h: Mean external-Abs DC50; for Dmax: MV4-11, MV4-11 cells, read-out: SMARCA4 MSD MV411 degradation 24 h: average Dmax %. In short, it runs like this:
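Fluorescent LI-COR imaging of Western blots quantified SMARCA2 and SMARCA4 protein remaining in MV4-11 cells after 24 h of compound treatment. β-actin was the loading control, and DC50, Dmax and SMARCA2/4 selectivity are given as letter-coded ranges.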
A general note: Immunoblotting shows a protein as a band on a membrane.

Experiment [3] addresses T1, SMARCA2. The experiment is described as follows: MSD SMARCA2 degradation in A549 cell line. The following applies: for SMARCA2 MSD A549 degradation 24 h: Average Dmax % / DC50: A549 cells; for DC50 / Dmax: 24 h; for DC50: read-out: SMARCA2 MSD A549 degradation 24 h: Average external-Abs DC50; for Dmax: A549, A549 cells. Here is the method:
Example 10. MSD SMARCA2 Degradation in A549 Cell Line
Cells were seeded into 96-well plates (A549 cells: 2×10^4 cells/well/100 ul media) and incubated overnight. The next day, 200 nL compound were added into the intermediate plate with Echo (Labcyte 550) from source plate containing a 3-fold serial dilution from top concentration of 1 mM. The culture medium was changed with 8 0ul of fresh medium and 80 μL of 2× compound solution was added into the well to make a final concentration of 1000 nM, 333.3 nM, 111.1 nM, 37.04 nM, 12.35 nM, 4.115 nM, 1.372 nM, 0.457 nM, 0.152 nM and 0 nM (DMSO). The wells were mixed and then incubated for 24 hours. The media was aspirated from the cultures and 60 ul pre-chilled PIPA lysis buffer (Boston BioProducts BP-115D) with protease/phosphatase inhibitor (Roche 05892791001/Roche 04906837001) was added into the well to lyze the cells for 20 minutes at 4° C. The MSD plate (L15XA) was coated with 40 uL cell lysate and incubated at 4° C. overnight. The next day, the plate was washed three times with TBST (CST #9997S), 150 ul/well. The MSD plates was blocked with 150 ul blocking buffer per well and shaked for 1 hr at RT, 600 rpm. The blocking buffer was 3% Blocker A (MSD, R93BA-4) in TBST. The MSD plate was washed three times with 150 uL/well of TBST and 25 ul/well of detection antibody (Rabbit anti-SMARCA2/BRM antibody, 100 μg/mL, ab223735) was added at final concentration of 1 μg/mL diluted in 1% Blocking buffer and shaken for 1 hour at RT, 600 rpm. The MSD plate was washed three times with 150 ul/well of TBST and 25 ul/well of SULFO-TAG anti-rabbit antibody (MSD, R32AB-1) was added at final concentration of 1 μg/ml diluted in 1% Blocking buffer and shaken for 1 hour at RT, 600 rpm. The MSD plate was washed three times with 150 uL/well of TBST and 150 ul/well of 2× MSD reading buffer diluted from 4× (MSD, R92TC-2) with water was added. Lastly, the MSD instrument was read.
The letter codes for SMARCA2 degradation potency (DC50) include: A (<10 nM), B (10-50 nM), C (>50-100 nM), and D (>100 nM). The letter codes for the percentage of SMARCA degradation after 24 hours (Dmax %) include: A (>90% degradation), B (>70-90% degradation), C (50-70% degradation), and D (<50% degradation).

Broadly, the DC50 is the concentration at which degradation of the target reaches its halfway point. As for `C[C@H](NC(=O)[C@@H]1C[C@@H](O)CN1C(=O)[C@@H](NC(=O)[C@H]1CCC2(CC1)C[C@H](N1CCC(c3cnc(N4CCN5c6cc(-c7ccccc7O)nnc6NC[C@H]5C4)nc3)CC1)C2)C(C)(C)C)c1ccc(-c2ccnn2C)cc1` (single isomer, unassigned) [I-22], in experiment [1], the “SMARCA2 MSD MV411 degradation 24 h: average Dmax %” value is “A (A (>90% degradation))”, the DC50 is under 1 nM and the “Selectivity in MV411” value is listed as “C (C (10-100 fold))”. Further, in experiment [2], the “SMARCA4 MSD MV411 degradation 24 h: average Dmax %” value is recorded as “B (B (>70-90% degradation))” and the DC50 is 10 to 100 nM. Besides, in experiment [3], the “SMARCA2 MSD A549 degradation 24 h: Average Dmax %” value is recorded as “A (A (>90% degradation))” and the DC50 was 10 to 50 nM.

For orientation: Dmax means the largest share of the target that was removed. With `C#Cc1ccc(CNC(=O)[C@@H]2C[C@@H](O)CN2C(=O)[C@@H](NC(=O)N2CCN(C[C@H]3CC[C@H](N4CCC(N5CCN6c7cc(-c8ccccc8O)nnc7NC[C@H]6C5)CC4)CC3)CC2)C(C)(C)C)cc1` [I-254], in experiment [1], the Dmax was 50 to 70%, the 50% degradation concentration (DC50) was in the range of 10 to 100 nM and the “Selectivity in MV411” value was “B (B (>100-500 fold))”. Moreover, in experiment [2], the Dmax is under 50% and the DC50 was over 100 nM. In experiment [3], the Dmax is 70 to 90% and the DC50 was in the range of 50 to 100 nM.

For `C#Cc1ccc(CNC(=O)[C@@H]2C[C@@H](O)CN2C(=O)[C@@H](NC(=O)[C@H]2CCC3(CC2)C[C@H](N2CCN(c4cnc(N5CCN6c7cc(-c8ccccc8O)nnc7NC[C@H]6C5)nc4)CC24CC4)C3)C(C)(C)C)cc1` (stereo partly drawn) [I-267], in experiment [1], the “SMARCA2 MSD MV411 degradation 24 h: average Dmax %” value is given as “B (B (>70-90% degradation))”, the DC50 lay in the range of 10 to 100 nM and the “Selectivity in MV411” value was “B (B (>100-500 fold))”. For the same compound, in experiment [2], the “SMARCA4 MSD MV411 degradation 24 h: average Dmax %” value is “D (D (<50% degradation))” and the DC50 was over 100 nM. Further, in experiment [3], the “SMARCA2 MSD A549 degradation 24 h: Average Dmax %” value is “B (B (>70-90% degradation))” and the DC50 lay within 50 to 100 nM.

Turning to `Cc1ncsc1-c1ccc(CNC(=O)[C@@H]2C[C@@H](O)CN2C(=O)C(c2cc(N3CC4(CC(N5CCC(c6cnc(N7CCc8[nH]c9nnc(-c%10ccccc%10O)cc9c8[C@@H]7C)nc6)CC5)C4)C3)no2)C(C)C)cc1` (stereo partly drawn) [I-11], in experiment [1], the Dmax was over 90%, the DC50 was 1 to 10 nM and the “Selectivity in MV411” value was “D (D (<10 fold))”. In addition, in experiment [2], the Dmax is over 90% and the DC50 is 10 to 100 nM. Further, in experiment [3], the Dmax is over 90% and the DC50 was 10 to 50 nM.

With `C#Cc1cnc(CNC(=O)[C@@H]2C[C@@H](O)CN2C(=O)[C@@H](NC(=O)[C@H]2CCC3(CC2)C[C@H](N2CCC(c4cnc(N5CCN6c7cc(-c8ccccc8O)nnc7NC[C@H]6C5)nc4)CC2)C3)C(C)(C)C)c(OC)c1` (single isomer, unassigned) [I-286], in experiment [1], the Dmax was under 50%, the DC50 is over 100 nM and the “Selectivity in MV411” value is reported as “D (D (<10 fold))”. In addition, in experiment [2], the Dmax was under 50% and the DC50 is over 100 nM. In addition, in experiment [3], the Dmax was in the range of 50 to 70% and the DC50 was over 100 nM.

Regarding `C#Cc1ccc(CNC(=O)[C@@H]2C[C@@H](O)CN2C(=O)[C@@H](NC(=O)N2CC3(CC(CCN4CCC(c5cnc(N6CCc7[nH]c8nnc(-c9ccccc9O)cc8c7[C@H]6C)nc5)CC4)C3)C2)C(C)(C)C)cc1` [I-416], the Dmax in experiment [1], in experiment [2] and in experiment [3] was over 90% throughout. The DC50 in experiment [1] is 1 to 10 nM; in experiment [2], 10 to 100 nM; in experiment [3], 10 to 50 nM. Moreover, the “Selectivity in MV411” value in experiment [1] was “C (C (10-100 fold))”.

With `C#Cc1ccc(CNC(=O)[C@@H]2C[C@@H](O)CN2C(=O)[C@@H](OC(=O)N2CC3(CC(N4CCC(c5cnc(N6CCc7[nH]c8nnc(-c9ccccc9O)cc8c7[C@H]6C)nc5)CC4)C3)C2)C(C)(C)C)cc1` [I-138], the Dmax in experiment [1], in experiment [2] and in experiment [3] was over 90% each time. The figures for the half-maximal degradation concentration (DC50) in experiment [1], in experiment [2] and in experiment [3] were 1 to 10 nM, 10 to 100 nM and under 10 nM, respectively. The “Selectivity in MV411” value in experiment [1] is listed as “C (C (10-100 fold))”.

As for `C#Cc1ccc(CNC(=O)[C@@H]2C[C@@H](O)CN2C(=O)[C@H](NC(=O)N2CC3(CC(N4CCC(c5cnc(N6CCc7[nH]c8nnc(-c9ccccc9O)cc8c7[C@H]6C)nc5)CC4)C3)C2)C(C)(C)CCN2CCOCC2)cc1` (single isomer, unassigned) [I-337], in experiment [1], the Dmax was in the range of 70 to 90%, the DC50 lay within 10 to 100 nM and the “Selectivity in MV411” value is on record as “B (B (>100-500 fold))”. In addition, in experiment [2], the Dmax was under 50% and the DC50 is over 100 nM. In experiment [3], the Dmax was over 90% and the DC50 was over 100 nM.

`C#Cc1ccc([C@H](CO)NC(=O)[C@@H]2C[C@@H](O)CN2C(=O)[C@@H](NC(=O)N2CC3(CC(N4CCC(c5cnc(N6CCc7[nH]c8nnc(-c9ccccc9O)cc8c7[C@H]6C)nc5)CC4)C3)C2)C(C)(C)C)nc1` (single isomer, unassigned) [I-304]: in experiment [1], the Dmax was 70 to 90%, the DC50 lay within 1 to 10 nM and the “Selectivity in MV411” value is listed as “B (B (>100-500 fold))”. For the same compound, in experiment [2], the Dmax was under 50% and the DC50 was over 100 nM. Moreover, in experiment [3], the Dmax was over 90% and the DC50 fell in the range of 50 to 100 nM.

Consider `C#Cc1ccc(CNC(=O)[C@@H]2C[C@@H](O)CN2C(=O)[C@@H](NC(=O)[C@H]2CCC3(CC2)C[C@H](N2CCC(c4cnc(N5CCN6c7cc(-c8ccccc8O)nnc7NC[C@H]6C5)nc4)CC2)C3)C(C)(C)C)c(OC)c1` (single isomer, unassigned) [I-125], for which, in experiment [1], the “SMARCA2 MSD MV411 degradation 24 h: average Dmax %” value is “B (B (>70-90% degradation))”, the DC50 was 1 to 10 nM and the “Selectivity in MV411” value is reported as “C (C (10-100 fold))”. In addition, in experiment [2], the “SMARCA4 MSD MV411 degradation 24 h: average Dmax %” value is “C (C (50-70% degradation))” and the DC50 was over 100 nM. For the same compound, in experiment [3], the Dmax was over 90% and the DC50 is under 10 nM.

As for `C#Cc1ccc(CNC(=O)[C@@H]2C[C@@H](O)CN2C(=O)[C@@H](NC(=O)[C@H]2CC3(CC[C@H](N4CCN(c5cnc(N6CCc7[nH]c8nnc(-c9ccccc9O)cc8c7[C@H]6C)nc5)CC4)CC3)C2)C(C)(C)C)cc1` (single isomer, unassigned) [I-285], in experiment [1], the Dmax lay in the range of 70 to 90%, the half-maximal degradation concentration (DC50) lay in the range of 10 to 100 nM and the “Selectivity in MV411” value is “C (C (10-100 fold))”. In experiment [2], the Dmax was in the range of 70 to 90% and the DC50 was over 100 nM. Also, in experiment [3], the Dmax was over 90% and the DC50 lay in the range of 10 to 50 nM.

As for `C#Cc1ccc(CNC(=O)[C@@H]2C[C@@H](O)CN2C(=O)[C@@H](NC(=O)[C@H]2CCC3(CC2)C[C@H](N2CCN(c4cnc(N5CCN6c7cc(-c8ccccc8O)nnc7NC[C@H]6C5)nc4)CC2)C3)C(C)(C)CCO)cc1` (single isomer, unassigned) [I-299], in experiment [1], the “SMARCA2 MSD MV411 degradation 24 h: average Dmax %” value is “B (B (>70-90% degradation))”, the DC50 fell in the range of 1 to 10 nM and the “Selectivity in MV411” value is “C (C (10-100 fold))”. Further, in experiment [2], the “SMARCA4 MSD MV411 degradation 24 h: average Dmax %” value is recorded as “C (C (50-70% degradation))” and the DC50 is over 100 nM. Also, in experiment [3], the “SMARCA2 MSD A549 degradation 24 h: Average Dmax %” value was “A (A (>90% degradation))” and the DC50 is under 10 nM.
